In brackets after ≈: the same amount, converted by molar mass. Read-outs that look alike come from different tables or passages of the source.
Tests used:
Type in all cases: cell-based
[1] = molecular target: mouse fibroblast cell line transfected with the HER-2 oncogene (3T3/neu) (UniProt P04626, cells depend on it, species not given); assay: Cell proliferation assay (SRB), 3T3/neu; conditions: for GI50: read-out: CELL IC50 3T3/NEU (converted)
SK-Br-3 cells = assay: Cell proliferation assay (SRB), SK-Br-3; conditions: for IC50: Homo sapiens, SK-BR-3, 48 h, read-out: CELL IC50 SKBr3
A431 cells = assay: Cell proliferation assay (SRB), A431; conditions: for IC50: Homo sapiens, A-431, 48 h, read-out: CELL IC50 A431
MDA-MB-435 cells = assay: Cell proliferation assay (SRB), MDA-MB-435; conditions: for IC50: Homo sapiens, MDA-MB-435, 48 h, read-out: CELL IC50 MDA-MB-435
SW620 cells = assay: Cell proliferation assay (SRB), SW620; conditions: for IC50: Homo sapiens, SW-620, 48 h, read-out: CELL IC50 SW620

Molecule	GI50 ([1]; EGFR −, Her-2 +++, 2 days, SRB)	IC50 (SK-Br-3 cells; EGFR −, Her-2 +++, 2 days, SRB)	IC50 (A431 cells; EGFR +++, Her-2 +, 2 days, SRB)	IC50 (MDA-MB-435 cells; EGFR −, Her-2 −, 2 days, SRB)	IC50 (SW620 cells; EGFR −, Her-2 −, 2 days, SRB)	further results
COCCOc1cc2ncc(C#N)c(Nc3ccc4cn[nH]c4c3)c2cc1OCCOC [Example 24, 4-(1H-Indazol-6-ylamino)-6,7-bis-(2-methoxy-ethoxy)-quinoline-3-carbonitrile]	> 11500 nM					
CCOc1cc2ncc(C#N)c(Nc3ccc4[nH]c(=O)oc(=O)c4c3)c2cc1OCC [Example 27, 4-(2,4-Dioxo-1,4-dihydro-2H-benzo[d][1,3]oxazin-6-ylamino)-6,7-diethoxy-quinoline-3-carbonitrile]	11000 nM					
COc1cc2ncc(C#N)c(Nc3ccc(Sc4ncc(-c5ccccc5)s4)c(Cl)c3)c2cc1NC(=O)/C=C/CN(C)C [Example 70, (E)-N-(4-{3-chloro-4-[(5-phenyl-1,3-thiazol-2-yl)sulfanyl]anilino}-3-cyano-7-methoxy-6-quinolinyl)-4-(dimethylamino)-2-butenamide]	191 nM	0.01 µg/mL (≈ 0.0159 µM)	0.22 µg/mL (≈ 0.351 µM)	0.08 µg/mL (≈ 0.128 µM)	0.5 µg/mL (≈ 0.797 µM)	
COc1cc2ncc(C#N)c(Nc3ccc(N(Cc4cccnc4)C(C)=O)c(Cl)c3)c2cc1NC(C)=O [Example 50]						CELL IC50 SKBr3 (SK-Br-3 cells; EGFR −, Her-2 +++, 2 days, SRB): 3.94 µg/mL; CELL IC50 A431 (A431 cells; EGFR +++, Her-2 +, 2 days, SRB): 3.68 µg/mL; CELL IC50 MDA-MB-435 (MDA-MB-435 cells; EGFR −, Her-2 −, 2 days, SRB): >5 µg/mL; CELL IC50 3T3/NEU ([1]; EGFR −, Her-2 +++, 2 days, SRB): >5 µg/mL; CELL IC50 SW620 (SW620 cells; EGFR −, Her-2 −, 2 days, SRB): >5 µg/mL
COc1cc2ncc(C#N)c(Nc3ccc(Sc4nccn4C)c(Cl)c3)c2cc1N [Example 36, 6-amino-4-({3-chloro-4-[(1-methyl-1H-imidazol-2-yl)sulfanyl]phenyl}amino)-7-methoxy-3-quinolinecarbonitrile]	2430 nM	0.011 µg/mL (≈ 0.0252 µM)	3.04 µg/mL (≈ 6.96 µM)	0.39 µg/mL (≈ 0.893 µM)	3.16 µg/mL (≈ 7.23 µM)	
CCOc1cc2ncc(C#N)c(Nc3ccc(Sc4nc(-c5ccccc5)cs4)c(C(F)(F)F)c3)c2cc1[N+](=O)[O-] [Example 67, 7-ethoxy-6-nitro-4-[4-[(4-phenyl-1,3-thiazol-2-yl)sulfanyl]-3-(trifluoromethyl)anilino]-3-quinolinecarbonitrile]	1150 nM	0.268 µg/mL (≈ 0.451 µM)	0.76 µg/mL (≈ 1.28 µM)	0.4 µg/mL (≈ 0.674 µM)	0.4 µg/mL (≈ 0.674 µM)	
4-{3-chloro-4-[(4-oxo-3,4-dihydro-2-quinazolinyl)sulfanyl]anilino}-7-methoxy-6-hydro-2-quinazolinyl)sulfanyl]anilino}-7-methoxy-6-nitro-3-quinolinecarbonitrile [Example 44]						CELL IC50 SKBr3 (SK-Br-3 cells): 4.54 µg/mL; CELL IC50 A431 (A431 cells): 2.28 µg/mL; CELL IC50 MDA-MB-435 (MDA-MB-435 cells): >5 µg/mL; CELL IC50 3T3/NEU ([1]; mouse fibroblast cell line transfected with the her-2 oncogene (3t3/neu)): 4.54 µg/mL; CELL IC50 SW620 (SW620 cells): 1.96 µg/mL
CCOc1cc2ncc(C#N)c(Nc3ccc4c(=O)[nH][nH]c(=O)c4c3)c2cc1OCC [Example 25, 4-(1,4-Dioxo-1,2,3,4-tetrahydro-phthalazin-6-ylamino)-6,7-diethoxy-quinoline-3-carbonitrile]	> 12000 nM					
CCOc1cc2ncc(C#N)c(Nc3ccc4c(c3)OCCO4)c2cc1OCC [Example 23, 4-(2,3-Dihydro-benzo[1,4]dioxin-6-ylamino)-6,7-diethoxy-quinoline-3-carbonitrile]	958 nM					
CCOc1cc2ncc(C#N)c(Nc3ccc(Sc4nccc(C)n4)c(Cl)c3)c2cc1N [Example 64, 6-amino-4-{3-chloro-4-[(4-methyl-2-pyrimidinyl)sulfanyl]anilino}-7-ethoxy-3-quinolinecarbonitrile]	6540 nM	> 5 µg/mL	1.53 µg/mL (≈ 3.3 µM)	1.8 µg/mL (≈ 3.89 µM)	2 µg/mL (≈ 4.32 µM)	
CCOc1cc2ncc(C#N)c(Nc3ccc(Cn4ccnc4)c(Cl)c3)c2cc1[N+](=O)[O-] [Example 60, 4-[3-chloro-4-(1H-imidazol-1-ylmethyl)anilino]-7-ethoxy-6-nitro-3-quinolinecarbonitrile]	> 11100 nM	2.44 µg/mL (≈ 5.44 µM)	> 5 µg/mL	> 5 µg/mL	> 5 µg/mL	
CCOc1cc2ncc(C#N)c(Nc3ccc(Sc4nccc(C)n4)c(Cl)c3)c2cc1NC(=O)/C=C/CN(C)C [Example 65, (E)-N-(4-{3-chloro-4-[(4-methyl-2-pyrimidinyl)sulfanyl]anilino}-3-cyano-7-ethoxy-6-quinolinyl)-4-(dimethylamino)-2-butenamide]	5.23 nM	0.001 µg/mL (≈ 0.00174 µM)	0.12 µg/mL (≈ 0.209 µM)	0.3 µg/mL (≈ 0.523 µM)	0.2 µg/mL (≈ 0.348 µM)	
COc1cc2ncc(C#N)c(Nc3ccc(N(Cc4cccnc4)C(C)=O)c(Cl)c3)c2cc1[N+](=O)[O-] [Example 48]						CELL IC50 SKBr3 (SK-Br-3 cells; EGFR −, Her-2 +++, 2 days, SRB): 0.68 µg/mL; CELL IC50 A431 (A431 cells; EGFR +++, Her-2 +, 2 days, SRB): 1.6 µg/mL; CELL IC50 MDA-MB-435 (MDA-MB-435 cells; EGFR −, Her-2 −, 2 days, SRB): 2.61 µg/mL; CELL IC50 3T3/NEU ([1]; EGFR −, Her-2 +++, 2 days, SRB): 1.79 µg/mL; CELL IC50 SW620 (SW620 cells; EGFR −, Her-2 −, 2 days, SRB): 2.57 µg/mL
